US12012401B2, “Process for preparing N-(5-(3-(7-(3-fluorophenyl)-3H-imidazo[4,5-c]pyridin-2-yl)-1H-indazol-5-yl)pyridin-3-yl)-3-methylbutanamide” (BioSplice Therapeutics, Inc., priority 2016, dated 2024)
Each block holds one compound with its values, some of them ahead of it.

Columns and labels:
Format in all cases: physicochemical
[1] = Dynamic vapor sorption (DVS) scan; details: for water absorption (DVS scan): at 90% RH
Description: The purity of the Form 13 sample was 98.8%; the KF of an undried Form 13 sample was 35.7%.

[2] = Form conversion on drying (XRD); details: for XRD after drying at 50° C. under vacuum: after air exposure overnight, dried at 50° C. under vacuum
Description: The Form 1 solid was dried at 75° C. under vacuum overnight, and XRD, DSC, and TGA scans were performed. […] However, the DSC scans indicated the absence of endotherm. The loss of the early peak on the DSC scan had no effect on the XRD trace, showing that the endotherm between 50-100° C. on DSC scan was due to the free solvent. The purity of the Form 13 sample was 98.8%; the KF of an undried Form 13 sample was 35.7%. […] Solvates 1 and 2 solids were exposed to air overnight, and then analyzed by XRD. After the analysis, the solids were dried at 50° C. under vacuum, and then analyzed by XRD again.

[3] = Form conversion on exposure to relative humidity / air (XRD); details: for XRD after exposure to air overnight: exposed to air overnight
Description: The hydrate lost its water below 30% RH.
Solvates 1 and 2 solids were exposed to air overnight, and then analyzed by XRD. After the analysis, the solids were dried at 50° C. under vacuum, and then analyzed by XRD again.

[4] = Heating in DSC chamber, then XRD scan (form conversion)
Description: The Form 1 solid was heated in a DSC chamber to 305° C. (past the endotherm/exotherm around 280° C.), and then scanned by XRD. […] Thus, the endotherm/exotherm around 280° C. might be due to melting/crystallization events.
The Form 2 solid was heated in a DSC machine to 90° C. (past the endotherm between 50-100° C.); to 270° C. (past the endotherm/exotherm around 240° C.); and finally to 330° C. (past the exotherm […]). The residual solid was analyzed by XRD. […] The endotherm between 50-100° C. might be free solvent or hydrate. […] Thus, the exotherm around 290° C. was a re-crystallization event. According to an XRD and DSC overlay, the behavior of Form 2* was similar to Form 2.
Form 13 solid was heated in a DSC chamber to 170° C. (past the endotherm between 50-100° C.), and then scanned by XRD. […] It can be concluded that the endotherm between 50-100° C. is due to bonded water.
Form 13 solid was heated in a DSC chamber to 330° C. (past the endotherm/exotherm around 300° C.), and then scanned by XRD. […] It can be concluded that the endotherm/exotherm is due to melting/crystallization events.

[5] = Competitive reslurry experiments between polymorph forms (thermodynamic stability); details: 3-5 days
Description: In order to find out the thermodynamic stability between the different forms, several competitive reslurry experiments were carried out. Form 1, Form 2, Form 2*, Form 3, Form 4, Form 4*, Form 4**, Form 5, Form 7, Form 8, Form 9, Form 10, Form 11, Form 11*, and Form 13 (10 mg for each) were mixed and slurried in 2 mL of solvent at both RT and 50° C. The solids were slurried for 3-5 days and then analyzed by XRD.

[6] = Competitive reslurry of Form 1, Form 9 and Form 13 (stability of Form 13 vs Form 9); details: toluene, IPAc, n-butyl acetate; 3 days at RT and 50° C.
Description: In order to find out the thermodynamic stability between Form 13 and Form 9, several competitive reslurry experiments were carried out. 15 mg of Form 1, Form 9 and Form 13 solids were mixed in 1 mL of toluene, IPAc, and n-butyl acetate, and slurried for 3 days at RT and 50° C.
The residual solid was analyzed by XRD.

[7] = Reslurry experiments in various solvents (polymorph screen)
Description: Reslurry experiments in various solvents were performed. Approximately 30-80 mg of the starting solid (a non-stoichiometric hydrate of Form 1 having between 1% and about 20% by weight water) was slurried in 39 different solvents (pure and binary solvents; the ratio of organic solvent/water (V/V) was 95%/5%) at RT and 50° C. for 5 days. Three solvates, one non-stoichiometric hydrate, and eleven non-solvated forms were identified. […] XRD of both wet and dry samples were scanned (FIG. 12A (dry sample)).

[8] = Solubility of the starting solid by the gravimetric method; details: at RT and at 50° C. in all solvents tested except DMF and DMSO
[9] = Acetontrile/water (5% water), RT
[10] = n-Butyl acetate/water (5% water), RT
[11] = Acetontrile/water (5% water), 50° C.
[12] = Heptane/water (5% water), 50° C.
[13] = Toluene/water (5% water), 50° C.
[14] = n-Butanol/water (5% water), 50° C.
[15] = n-Butyl acetate/water (5% water), 50° C.

water absorption (DVS scan) [1]: 17%
change of XRD scan after drying ([2]; dried at 75° C. under vacuum overnight): no change
form after heating (XRD) ([4]; heated in a DSC chamber to 305° C.): converted to Form 9
SMILES: CC(C)CC(=O)Nc1cncc(-c2ccc3[nH]nc(-c4nc5c(-c6cccc(F)c6)cncc5[nH]4)c3c2)c1 [Form 1, N-(5-(3-(7-(3-fluorophenyl)-3H-imidazo[4,5-c]pyridin-2-yl)-1H-indazol-5-yl)pyridin-3-yl)-3-methylbutanamide]
form change when exposed to air ([3]; exposed to air): converted to a non-stoichiometric hydrate of Form 1

thermodynamic stability in competitive reslurry ([5]; MeOH, EtOH, and acetone system at both RT and 50° C.): most stable form
form after heating (XRD) ([4]; heated in a DSC machine to 90° C.): did not change
form after heating (XRD) ([4]; heated in a DSC machine to 270° C.): converted to low crystalline solids
form after heating (XRD) ([4]; heated to 330° C.): converted to Form 9
SMILES: CC(C)CC(=O)Nc1cncc(-c2ccc3[nH]nc(-c4nc5c(-c6cccc(F)c6)cncc5[nH]4)c3c2)c1 [Form 2, N-(5-(3-(7-(3-fluorophenyl)-3H-imidazo[4,5-c]pyridin-2-yl)-1H-indazol-5-yl)pyridin-3-yl)-3-methylbutanamide]

thermodynamic stability in competitive reslurry ([5]; EA at RT and 50° C.): most stable
SMILES: CC(C)CC(=O)Nc1cncc(-c2ccc3[nH]nc(-c4nc5c(-c6cccc(F)c6)cncc5[nH]4)c3c2)c1 [Form 4, N-(5-(3-(7-(3-fluorophenyl)-3H-imidazo[4,5-c]pyridin-2-yl)-1H-indazol-5-yl)pyridin-3-yl)-3-methylbutanamide]

form before and after the DVS scan ([1]; DVS scan): did not change its form
water absorption (DVS scan) [1]: 0.8%
SMILES: CC(C)CC(=O)Nc1cncc(-c2ccc3[nH]nc(-c4nc5c(-c6cccc(F)c6)cncc5[nH]4)c3c2)c1 [Form 9, N-(5-(3-(7-(3-fluorophenyl)-3H-imidazo[4,5-c]pyridin-2-yl)-1H-indazol-5-yl)pyridin-3-yl)-3-methylbutanamide]
thermodynamic stability between Form 13 and Form 9 [6]: difficult to tell which one was more stable

Form; Dry [7, 9]: Form 1
Form; Wet [7, 9]: Form 12
Form; Dry ([7]; EA/water (5% water), RT): Form 1
Form; Wet ([7]; EA/water (5% water), RT): Form 12
Form; Dry ([7]; Heptane/water (5% water), RT): Form 12
Form; Wet ([7]; Heptane/water (5% water), RT): Form 13
Form; Dry ([7]; IPAc/water (5% water), RT): Form 1
Form; Wet ([7]; IPAc/water (5% water), RT): Form 12
Form; Dry ([7]; MA/water (5% water), 50° C.): Form 4
Form; Wet ([7]; MA/water (5% water), 50° C.): Form 12
Form; Dry ([7]; MIBK/water (5% water), RT): Form 1
Form; Wet ([7]; MIBK/water (5% water), RT): Form 12
Form; Dry ([7]; MeOH/water (5% water), RT): Form 1
Form; Wet ([7]; MeOH/water (5% water), RT): Form 12
Form; Dry ([7]; MtBE/water (5% water), RT): Form 1
Form; Wet ([7]; MtBE/water (5% water), RT): Form 12
Form; Dry [7, 10]: Form 12
Form; Wet [7, 10]: Form 13
SMILES: CC(C)CC(=O)Nc1cncc(-c2ccc3[nH]nc(-c4nc5c(-c6cccc(F)c6)cncc5[nH]4)c3c2)c1 [Form 12, N-(5-(3-(7-(3-fluorophenyl)-3H-imidazo[4,5-c]pyridin-2-yl)-1H-indazol-5-yl)pyridin-3-yl)-3-methylbutanamide]

water absorption (DVS scan) [1]: 17%
Form; Dry [7, 11]: Form 13
Form; Wet [7, 11]: Form 13
Form; Dry ([7]; DCM, 50° C.): Form 13
Form; Wet ([7]; DCM, 50° C.): Form 13
Form; Dry ([7]; DCM/water (5% water), 50° C.): Form 1
Form; Wet ([7]; DCM/water (5% water), 50° C.): Form 13
Form; Dry ([7]; DCM/water (5% water), RT): Form 1
Form; Wet ([7]; DCM/water (5% water), RT): Form 13
Form; Dry ([7]; Heptane, 50° C.): Form 13
Form; Wet ([7]; Heptane, 50° C.): Form 13
Form; Dry [7, 12]: Form 1
Form; Wet [7, 12]: Form 13
Form; Dry ([7]; Heptane/water (5% water), RT): Form 12
Form; Wet ([7]; Heptane/water (5% water), RT): Form 13
Form; Dry ([7]; IPAc/water (5% water), 50° C.): Form 13
Form; Wet ([7]; IPAc/water (5% water), 50° C.): Form 13
Form; Dry ([7]; MA/water (5% water), RT): Form 1
Form; Wet ([7]; MA/water (5% water), RT): Form 13
Form; Dry ([7]; MIBK/water (5% water), 50° C.): Form 1
Form; Wet ([7]; MIBK/water (5% water), 50° C.): Form 13
Form; Dry ([7]; MeOH, RT): Form 1
Form; Wet ([7]; MeOH, RT): Form 13
Form; Dry ([7]; MeOH/water (5% water), 50° C.): Form 13
Form; Wet ([7]; MeOH/water (5% water), 50° C.): Form 13
Form; Dry ([7]; MtBE/water (5% water), 50° C.): Form 13
Form; Wet ([7]; MtBE/water (5% water), 50° C.): Form 13
Form; Dry [7, 13]: Form 13
Form; Wet [7, 13]: Form 13
Form; Dry ([7]; Toluene/water (5% water), RT): Form 1
Form; Wet ([7]; Toluene/water (5% water), RT): Form 13
Form; Dry [7, 14]: Form 1
Form; Wet [7, 14]: Form 13
Form; Dry ([7]; n-Butanol/water (5% water), RT): Form 13
Form; Wet ([7]; n-Butanol/water (5% water), RT): Form 13
Form; Dry [7, 15]: Form 1
Form; Wet [7, 15]: Form 13
Form; Dry [7, 10]: Form 12
Form; Wet [7, 10]: Form 13
Form; Dry ([7]; water, 50° C.): Form 13
Form; Wet ([7]; water, 50° C.): Form 13
Form; Dry ([7]; water, RT): Form 1
Form; Wet ([7]; water, RT): Form 13
form change upon drying ([2]; upon drying): converted to Form 1
thermodynamic stability in competitive reslurry ([5]; water at RT and 50° C.): most stable
form after heating (XRD) ([4]; heated in a DSC chamber to 170° C.): converted to Form 1
form after heating (XRD) ([4]; heated to 330° C.): converted to Form 9
SMILES: CC(C)CC(=O)Nc1cncc(-c2ccc3[nH]nc(-c4nc5c(-c6cccc(F)c6)cncc5[nH]4)c3c2)c1 [Form 13, N-(5-(3-(7-(3-fluorophenyl)-3H-imidazo[4,5-c]pyridin-2-yl)-1H-indazol-5-yl)pyridin-3-yl)-3-methylbutanamide]
thermodynamic stability between Form 13 and Form 9 [6]: difficult to tell which one was more stable

XRD after drying at 50° C. under vacuum [2]: still a low crystallinity solid
XRD after exposure to air overnight [3]: converted to low crystallinity
SMILES: CC(C)CC(=O)Nc1cncc(-c2ccc3[nH]nc(-c4nc5c(-c6cccc(F)c6)cncc5[nH]4)c3c2)c1 [Solvate 1, N-(5-(3-(7-(3-fluorophenyl)-3H-imidazo[4,5-c]pyridin-2-yl)-1H-indazol-5-yl)pyridin-3-yl)-3-methylbutanamide]

XRD after drying at 50° C. under vacuum [2]: remained the same
XRD after exposure to air overnight [3]: changed a little
SMILES: CC(C)CC(=O)Nc1cncc(-c2ccc3[nH]nc(-c4nc5c(-c6cccc(F)c6)cncc5[nH]4)c3c2)c1 [Solvate 2, N-(5-(3-(7-(3-fluorophenyl)-3H-imidazo[4,5-c]pyridin-2-yl)-1H-indazol-5-yl)pyridin-3-yl)-3-methylbutanamide]

RH below which the hydrate lost its water ([3]; RH): below 30 % RH
SMILES: CC(C)CC(=O)Nc1cncc(-c2ccc3[nH]nc(-c4nc5c(-c6cccc(F)c6)cncc5[nH]4)c3c2)c1 [non-stoichiometric hydrate of Form 1, N-(5-(3-(7-(3-fluorophenyl)-3H-imidazo[4,5-c]pyridin-2-yl)-1H-indazol-5-yl)pyridin-3-yl)-3-methylbutanamide]

Solubility (in words) [8]: low solubility
SMILES: CC(C)CC(=O)Nc1cncc(-c2ccc3[nH]nc(-c4nc5c(-c6cccc(F)c6)cncc5[nH]4)c3c2)c1 [starting solid, N-(5-(3-(7-(3-fluorophenyl)-3H-imidazo[4,5-c]pyridin-2-yl)-1H-indazol-5-yl)pyridin-3-yl)-3-methylbutanamide]
